Data as given in ChEMBL document CHEMBL4251578, “Design, synthesis and biological evaluation of novel 2-aminobenzamides containing dithiocarbamate moiety as histone deacetylase inhibitors and potent antitumor agents” (Eur J Med Chem, 2018).

Legend:
MGC-803 = assay: Antiproliferative activity against human MGC803 cells at 8 uM after 72 hrs by CCK-8 assay relative to control; type: functional; details: MGC-803, 72 h
SMMC-7721 [1] = assay: Induction of apoptosis in human SMMC7721 cells assessed as viable cells at 0.125 umol/L after 72 hrs by Alexa Fluor 488 Annexin/propidium iodide staining-based flow cytometric analysis (reference value: 97.14%); type: functional; details: SMMC-7721, 72 h, read-out: Activity
HeLa = assay: Antiproliferative activity against human HeLa cells at 2 uM after 72 hrs by CCK-8 assay relative to control; type: functional
Histone deacetylase 1 = Histone deacetylase 1 (Homo sapiens, UniProt Q13547); assay: Inhibition of human recombinant HDAC1 using Fluor de Lys-Green as substrate preincubated for 5 mins followed by substrate addition and measured after 1 hr by fluorescence assay
NCI-H1299 = assay: Antiproliferative activity against human NCI-H1299 cells after 72 hrs by CCK-8 assay; type: functional, cell-based; details: for IC50: NCI-H1299, 72 h
SMMC-7721 [2] = assay: Cell cycle arrest in human SMMC7721 cells assessed as accumulation of cells at G2/M phase at 4 umol/L after 72 hrs by propidium iodide staining-based flow cytometric analysis (reference value: 14.14%); type: functional
SMMC-7721 [3] = assay: Induction of apoptosis in human SMMC7721 cells assessed as early apoptotic cells at 0.125 umol/L after 72 hrs by Alexa Fluor 488 Annexin/propidium iodide staining-based flow cytometric analysis (reference value: 0.09%); type: functional
SMMC-7721 [4] = assay: Induction of apoptosis in human SMMC7721 cells assessed as viable cells at 1 umol/L after 72 hrs by Alexa Fluor 488 Annexin/propidium iodide staining-based flow cytometric analysis (reference value: 97.14%); type: functional; details: SMMC-7721, 72 h, read-out: Activity
SMMC-7721 [5] = assay: Induction of apoptosis in human SMMC7721 cells assessed as late apoptotic cells at 0.125 umol/L after 72 hrs by Alexa Fluor 488 Annexin/propidium iodide staining-based flow cytometric analysis (reference value: 0.29%); type: functional
SMMC-7721 [6] = assay: Induction of apoptosis in human SMMC7721 cells assessed as viable cells at 4 umol/L after 72 hrs by Alexa Fluor 488 Annexin/propidium iodide staining-based flow cytometric analysis (reference value: 97.14%); type: functional; details: SMMC-7721, 72 h, read-out: Activity
A-375 [7] = assay: Antiproliferative activity against human A375 cells at 2 uM after 72 hrs by CCK-8 assay relative to control; type: functional; details: A-375, 72 h
HCT-116 = assay: Antiproliferative activity against human HCT116 cells after 72 hrs by CCK-8 assay; type: functional, cell-based; details: for IC50: HCT-116, 72 h
SMMC-7721 [8] = assay: Induction of apoptosis in human SMMC7721 cells assessed as early apoptotic cells at 4 umol/L after 72 hrs by Alexa Fluor 488 Annexin/propidium iodide staining-based flow cytometric analysis (reference value: 0.09%); type: functional
SMMC-7721 [9] = assay: Cell cycle arrest in human SMMC7721 cells assessed as accumulation of cells at S phase at 1 umol/L after 72 hrs by propidium iodide staining-based flow cytometric analysis (reference value: 5.21%); type: functional
SMMC-7721 [10] = assay: Induction of apoptosis in human SMMC7721 cells assessed as early apoptotic cells at 1 umol/L after 72 hrs by Alexa Fluor 488 Annexin/propidium iodide staining-based flow cytometric analysis (reference value: 0.09%); type: functional
SMMC-7721 [11] = assay: Cell cycle arrest in human SMMC7721 cells assessed as accumulation of cells at G2/M phase at 1 umol/L after 72 hrs by propidium iodide staining-based flow cytometric analysis (reference value: 14.14%); type: functional
[12] = target: T1, Protein deacetylase HDAC6 (Homo sapiens, UniProt Q9UBN7); assay: Inhibition of human recombinant HDAC6 using Fluor de Lys-Green as substrate preincubated for 5 mins followed by substrate addition and measured after 1 hr by fluorescence assay
T1 sequence (Q9UBN7 whole entry): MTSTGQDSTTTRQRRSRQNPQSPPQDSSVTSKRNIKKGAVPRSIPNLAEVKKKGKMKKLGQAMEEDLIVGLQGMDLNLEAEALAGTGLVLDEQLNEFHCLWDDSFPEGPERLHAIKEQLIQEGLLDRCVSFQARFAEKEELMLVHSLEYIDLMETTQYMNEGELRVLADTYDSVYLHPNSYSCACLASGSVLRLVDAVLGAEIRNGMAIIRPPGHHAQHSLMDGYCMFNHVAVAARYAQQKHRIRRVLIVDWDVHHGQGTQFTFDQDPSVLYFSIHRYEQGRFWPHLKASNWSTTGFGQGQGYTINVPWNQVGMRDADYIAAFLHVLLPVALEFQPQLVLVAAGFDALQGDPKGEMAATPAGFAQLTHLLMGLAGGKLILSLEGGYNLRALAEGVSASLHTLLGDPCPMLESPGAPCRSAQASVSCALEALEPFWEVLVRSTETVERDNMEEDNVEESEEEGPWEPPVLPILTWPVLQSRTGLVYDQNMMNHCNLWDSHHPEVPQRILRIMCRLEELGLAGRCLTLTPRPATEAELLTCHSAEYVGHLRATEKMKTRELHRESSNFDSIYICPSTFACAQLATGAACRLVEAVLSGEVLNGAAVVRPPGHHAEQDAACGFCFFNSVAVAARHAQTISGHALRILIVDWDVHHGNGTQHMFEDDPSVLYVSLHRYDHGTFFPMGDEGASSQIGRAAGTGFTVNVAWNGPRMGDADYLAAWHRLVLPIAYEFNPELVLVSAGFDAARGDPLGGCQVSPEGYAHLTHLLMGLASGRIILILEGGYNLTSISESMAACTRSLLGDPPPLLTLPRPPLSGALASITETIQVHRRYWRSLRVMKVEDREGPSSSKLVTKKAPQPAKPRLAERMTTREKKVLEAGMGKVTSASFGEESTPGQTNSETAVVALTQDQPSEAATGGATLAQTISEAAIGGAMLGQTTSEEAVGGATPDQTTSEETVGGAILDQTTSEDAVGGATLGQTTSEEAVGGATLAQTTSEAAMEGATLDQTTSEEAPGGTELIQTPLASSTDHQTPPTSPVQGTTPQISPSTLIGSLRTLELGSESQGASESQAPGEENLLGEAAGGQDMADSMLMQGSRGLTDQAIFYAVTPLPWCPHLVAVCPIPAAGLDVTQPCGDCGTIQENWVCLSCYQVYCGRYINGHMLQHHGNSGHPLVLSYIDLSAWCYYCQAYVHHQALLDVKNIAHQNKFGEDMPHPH

SMMC-7721 [13] = assay: Cell cycle arrest in human SMMC7721 cells assessed as accumulation of cells at G0/G1 phase at 1 umol/L after 72 hrs by propidium iodide staining-based flow cytometric analysis (reference value: 80.65%); type: functional
SMMC-7721 [14] = assay: Induction of apoptosis in human SMMC7721 cells assessed as late apoptotic cells at 4 umol/L after 72 hrs by Alexa Fluor 488 Annexin/propidium iodide staining-based flow cytometric analysis (reference value: 0.29%); type: functional
A-375 [15] = assay: Antiproliferative activity against human A375 cells after 72 hrs by CCK-8 assay; type: functional, cell-based; details: for IC50: A-375, 72 h
SMMC-7721 [16] = assay: Cell cycle arrest in human SMMC7721 cells assessed as accumulation of cells at S phase at 4 umol/L after 72 hrs by propidium iodide staining-based flow cytometric analysis (reference value: 5.21%); type: functional

Sequence of Histone deacetylase 1 (Q13547 whole entry): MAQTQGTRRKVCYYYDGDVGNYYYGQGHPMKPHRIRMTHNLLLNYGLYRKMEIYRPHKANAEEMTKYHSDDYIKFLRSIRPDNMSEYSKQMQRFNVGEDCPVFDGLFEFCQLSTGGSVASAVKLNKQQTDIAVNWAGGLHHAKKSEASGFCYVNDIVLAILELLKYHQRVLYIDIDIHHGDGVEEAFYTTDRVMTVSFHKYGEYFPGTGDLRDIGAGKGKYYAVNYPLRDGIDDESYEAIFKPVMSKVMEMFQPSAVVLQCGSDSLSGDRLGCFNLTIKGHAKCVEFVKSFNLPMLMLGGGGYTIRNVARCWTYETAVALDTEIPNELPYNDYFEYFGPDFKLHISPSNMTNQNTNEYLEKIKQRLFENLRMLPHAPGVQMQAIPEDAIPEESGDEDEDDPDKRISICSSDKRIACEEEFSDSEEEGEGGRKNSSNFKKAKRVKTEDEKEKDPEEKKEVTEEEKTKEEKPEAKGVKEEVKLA

Row | Compound | inhibition at 8 µM (MGC-803) | viability at 0.125 µM (SMMC-7721 [1]) | inhibition at 2 µM (HeLa) | IC50 (Histone deacetylase 1) | IC50 (NCI-H1299) | Activity (SMMC-7721 [2]) | Activity (SMMC-7721 [3]) | viability at 1 µM (SMMC-7721 [4]) | Activity (SMMC-7721 [5]) | viability at 4 µM (SMMC-7721 [6]) | inhibition at 2 µM (A-375 [7]) | IC50 (HCT-116) | Activity (SMMC-7721 [8]) | Activity (SMMC-7721 [9]) | Activity (SMMC-7721 [10]) | Activity (SMMC-7721 [11]) | IC50 [12] | Activity (SMMC-7721 [13]) | Activity (SMMC-7721 [14]) | IC50 (A-375 [15]) | also measured
1 | CCN(Cc1ccncc1)C(=S)SCc1ccc(C(=O)Nc2ccccc2N)cc1 | 85.2% | 73.1% | 63.5% | 1.38 µM | 0.75 µM | 48.94% | 2.75% | 54.7% | 11.22% | 43% | 67.2% | 0.75 µM | 23.81% | 7.45% | 18.06% | 21.11% | > 40 µM | 71.44% | 31.88% | 1.94 µM | Activity (SMMC-7721 [16]): 9.19%
2 | Nc1ccccc1NC(=O)c1ccc(CSC(=S)N2CCc3ccccc3C2)cc1 | 87.5% | 71.2% | 54.4% | 2.57 µM | 0.98 µM | 28.31% | 14.71% | 57.3% | 10.62% | 46% | 55.5% | 1.56 µM | 25.36% | 9.25% | 27.39% | 23.16% | > 40 µM | 67.59% | 26.7% | 1.97 µM | Activity (SMMC-7721 [16]): 7.63%
3 | Nc1ccccc1NC(=O)c1ccc(CSC(=S)N2CCN(c3ccncc3)CC2)cc1 | 87.1% | 72.5% | 77% | 0.48 µM | 2.49 µM | 12.05% | 3.66% | 66.7% | 12.55% | 24.3% | 85.7% | 0.54 µM | 19.79% | 7.04% | 17.23% | 13.68% | > 40 µM | 79.27% | 52.78% | 1.27 µM | Activity (NCI-H1299): Dose-dependent effect; Activity (HCT-116): Dose-dependent effect; Activity (A-375 [15]): Dose-dependent effect; Activity (SMMC-7721 [16]): 2.76%
